Earlier results on one molecule are cited in patent US20050084461A1, “Tooth enamel rejuvenating toothpaste” (priority 2003, published 2005).

The conditions of this data set: pH of about 7.0, temperature of about 25° C.

In the case of `O.O.O=P([O-])([O-])O.[Ca+2]` [dicalcium phosphate dihydrate], the “calcium cations released in aqueous solution” value was “about 40 ppm”.
